Results as given in ChEMBL document CHEMBL4725465 (ACS Med Chem Lett, 2020).
Where a SMILES comes first, the peptide text is derived from it. [ ]: non-standard residue; d: D form. The star is where a group is joined. Gly(N-(2R-Ph-propyl)) = C[C@@H](CNCC(=O)O)c1ccccc1; Piperidin1yl(4-NH2,4-COOH) = NC1(C(=O)O)CCN(*)CC1; N(Indan-2-yl)Gly = O=C(O)CNC1Cc2ccccc2C1; Gly(NCH2CH2Ph) = O=C(O)CNCCc1ccccc1; Morpholide = C1CN(*)CCO1; X1 = CNC(=O)NC1CCN(*)CC1

Columns and labels:
[1] = target: Kappa-type opioid receptor (Homo sapiens, UniProt P41145); test: Agonist activity at human kappa opioid receptor expressed in HEK293 cells assessed as inhibition of forskolin-induced cAMP accumulation measured after 5 hrs by One-Glo luciferase assay; type: functional, cell-based
Chain of Kappa-type opioid receptor (P41145 whole entry): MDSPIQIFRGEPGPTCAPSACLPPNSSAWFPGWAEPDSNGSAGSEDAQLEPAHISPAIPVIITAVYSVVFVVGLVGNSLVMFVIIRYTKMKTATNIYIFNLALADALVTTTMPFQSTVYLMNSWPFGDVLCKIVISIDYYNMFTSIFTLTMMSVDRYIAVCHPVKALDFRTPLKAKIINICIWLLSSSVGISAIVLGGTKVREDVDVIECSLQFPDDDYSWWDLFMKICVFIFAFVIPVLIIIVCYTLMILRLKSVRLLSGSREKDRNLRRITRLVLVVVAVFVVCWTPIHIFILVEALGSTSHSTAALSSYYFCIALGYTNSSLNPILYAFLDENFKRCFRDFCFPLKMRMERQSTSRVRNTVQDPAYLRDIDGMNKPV

Rattus norvegicus [2] = test: Antiinflammatory activity in carrageenan-induced pain in Wistar rat model assessed as effect on hindpaw withdrawal threshold at 0.3 mg/kg, iv administered 4 hrs post-carrageenan challenge and measured for 30 mins after compound administration by Von-Frey test relative to control; type: functional; conditions: dose mg/kg 0.03-0.3, 0.5 h
Cytochrome P450 3A4 [3] = target: T1, Cytochrome P450 3A4 (Homo sapiens, UniProt P08684); test: Inhibition of CYP3A4 in human pooled liver microsomes using midazolam as substrate measured up to 20 mins by UHPLC-MS/MS analysis; type: ADME
T1 sequence (P08684 whole entry): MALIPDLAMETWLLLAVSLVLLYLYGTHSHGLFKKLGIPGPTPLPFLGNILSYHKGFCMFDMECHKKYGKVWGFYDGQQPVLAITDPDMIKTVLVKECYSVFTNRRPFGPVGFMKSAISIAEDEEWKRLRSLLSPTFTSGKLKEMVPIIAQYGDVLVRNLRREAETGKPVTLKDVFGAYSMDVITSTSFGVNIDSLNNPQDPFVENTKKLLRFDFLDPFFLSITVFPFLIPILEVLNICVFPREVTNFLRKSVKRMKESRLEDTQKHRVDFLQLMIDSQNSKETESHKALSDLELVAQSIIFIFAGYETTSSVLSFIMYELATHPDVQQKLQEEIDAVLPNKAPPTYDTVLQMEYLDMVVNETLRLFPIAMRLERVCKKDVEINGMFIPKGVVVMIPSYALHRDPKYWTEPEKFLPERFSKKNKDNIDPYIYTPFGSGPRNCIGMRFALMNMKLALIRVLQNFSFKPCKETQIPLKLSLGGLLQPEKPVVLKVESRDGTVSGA

Cytochrome P450 3A4 [4] = target: T1, Cytochrome P450 3A4; test: Inhibition of CYP3A4 in human pooled liver microsomes using testosterone as substrate measured up to 20 mins by UHPLC-MS/MS analysis; type: ADME
[5] = Half life in Beagle dog at 0.5 mg/kg, iv measured up to 24 hrs; type: ADME, organism-based, Canis lupus familiaris; conditions: in vivo
[6] = target: Voltage-gated inwardly rectifying potassium channel KCNH2 (Homo sapiens, UniProt Q12809); test: Inhibition of human ERG
Chain of Voltage-gated inwardly rectifying potassium channel KCNH2 (Q12809 whole entry): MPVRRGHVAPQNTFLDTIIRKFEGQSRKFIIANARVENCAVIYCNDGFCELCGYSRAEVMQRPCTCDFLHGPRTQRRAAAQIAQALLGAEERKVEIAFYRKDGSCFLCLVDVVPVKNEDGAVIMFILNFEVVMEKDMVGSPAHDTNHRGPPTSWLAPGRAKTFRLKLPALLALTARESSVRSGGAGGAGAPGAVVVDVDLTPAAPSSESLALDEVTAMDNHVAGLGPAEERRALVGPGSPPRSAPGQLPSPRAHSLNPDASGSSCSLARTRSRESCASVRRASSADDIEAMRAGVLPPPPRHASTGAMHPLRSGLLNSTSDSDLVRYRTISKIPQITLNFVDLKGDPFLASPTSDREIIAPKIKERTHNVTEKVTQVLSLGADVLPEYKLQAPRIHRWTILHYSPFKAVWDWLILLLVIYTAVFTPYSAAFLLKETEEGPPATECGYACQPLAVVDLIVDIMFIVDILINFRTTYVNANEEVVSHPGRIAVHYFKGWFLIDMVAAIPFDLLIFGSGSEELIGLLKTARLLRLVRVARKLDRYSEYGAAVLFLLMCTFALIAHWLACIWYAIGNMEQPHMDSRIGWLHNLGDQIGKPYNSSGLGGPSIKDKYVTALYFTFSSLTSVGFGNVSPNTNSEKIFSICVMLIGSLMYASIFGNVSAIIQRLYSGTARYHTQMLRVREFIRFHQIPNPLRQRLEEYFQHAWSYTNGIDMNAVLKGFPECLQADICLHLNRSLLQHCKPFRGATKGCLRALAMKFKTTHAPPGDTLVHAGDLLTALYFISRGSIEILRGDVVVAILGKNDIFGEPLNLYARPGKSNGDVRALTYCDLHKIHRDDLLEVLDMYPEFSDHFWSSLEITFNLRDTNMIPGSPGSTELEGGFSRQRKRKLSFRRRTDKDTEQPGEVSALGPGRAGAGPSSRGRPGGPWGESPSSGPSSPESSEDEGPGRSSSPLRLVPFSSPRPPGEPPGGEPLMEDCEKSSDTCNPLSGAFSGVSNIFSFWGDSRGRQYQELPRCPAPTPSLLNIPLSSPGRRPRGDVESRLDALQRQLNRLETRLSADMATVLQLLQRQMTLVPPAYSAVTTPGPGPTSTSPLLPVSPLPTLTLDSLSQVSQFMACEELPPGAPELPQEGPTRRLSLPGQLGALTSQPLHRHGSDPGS

Cytochrome P450 2C9 = Cytochrome P450 2C9 (Homo sapiens, UniProt P11712); test: Inhibition of CYP2C9 in human pooled liver microsomes using tolbutamide as substrate measured up to 20 mins by UHPLC-MS/MS analysis; type: ADME
Chain of Cytochrome P450 2C9 (P11712 whole entry): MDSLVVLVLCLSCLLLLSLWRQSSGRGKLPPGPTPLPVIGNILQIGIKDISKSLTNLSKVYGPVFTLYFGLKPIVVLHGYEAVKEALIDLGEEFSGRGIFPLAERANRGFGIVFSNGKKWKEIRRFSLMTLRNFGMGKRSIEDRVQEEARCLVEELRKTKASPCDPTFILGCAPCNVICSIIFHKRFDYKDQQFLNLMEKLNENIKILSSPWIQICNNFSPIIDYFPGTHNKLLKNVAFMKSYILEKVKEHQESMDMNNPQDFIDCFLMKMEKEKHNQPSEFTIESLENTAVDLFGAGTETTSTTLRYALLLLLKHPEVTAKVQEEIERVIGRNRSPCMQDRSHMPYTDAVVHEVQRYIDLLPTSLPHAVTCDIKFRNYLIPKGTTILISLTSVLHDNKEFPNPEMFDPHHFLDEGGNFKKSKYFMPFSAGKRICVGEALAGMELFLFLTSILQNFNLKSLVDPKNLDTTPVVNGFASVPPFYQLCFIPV

Cytochrome P450 1A2 = target: T2, Cytochrome P450 1A2 (Homo sapiens, UniProt P05177); test: Inhibition of CYP1A2 in human pooled liver microsomes using phenacetin as substrate measured up to 20 mins by UHPLC-MS/MS analysis; type: ADME
T2 sequence (P05177 whole entry): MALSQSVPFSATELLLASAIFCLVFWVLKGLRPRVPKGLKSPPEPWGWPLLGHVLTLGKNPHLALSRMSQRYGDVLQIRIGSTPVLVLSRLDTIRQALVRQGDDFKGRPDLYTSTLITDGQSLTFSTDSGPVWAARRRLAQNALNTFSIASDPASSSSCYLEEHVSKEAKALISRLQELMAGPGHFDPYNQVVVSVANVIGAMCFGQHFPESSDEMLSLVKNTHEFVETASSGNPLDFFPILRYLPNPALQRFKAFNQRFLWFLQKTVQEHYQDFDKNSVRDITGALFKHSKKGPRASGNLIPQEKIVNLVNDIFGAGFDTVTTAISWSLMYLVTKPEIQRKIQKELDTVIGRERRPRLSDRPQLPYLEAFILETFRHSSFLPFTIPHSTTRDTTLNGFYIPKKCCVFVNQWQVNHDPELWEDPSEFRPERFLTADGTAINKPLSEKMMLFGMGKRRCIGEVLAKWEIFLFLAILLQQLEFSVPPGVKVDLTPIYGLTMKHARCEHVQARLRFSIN

[7] = target: Delta-type opioid receptor (Homo sapiens, UniProt P41143); test: Agonist activity at human delta opioid receptor assessed as inhibition of forskolin-induced cAMP accumulation
Chain of Delta-type opioid receptor (P41143 whole entry): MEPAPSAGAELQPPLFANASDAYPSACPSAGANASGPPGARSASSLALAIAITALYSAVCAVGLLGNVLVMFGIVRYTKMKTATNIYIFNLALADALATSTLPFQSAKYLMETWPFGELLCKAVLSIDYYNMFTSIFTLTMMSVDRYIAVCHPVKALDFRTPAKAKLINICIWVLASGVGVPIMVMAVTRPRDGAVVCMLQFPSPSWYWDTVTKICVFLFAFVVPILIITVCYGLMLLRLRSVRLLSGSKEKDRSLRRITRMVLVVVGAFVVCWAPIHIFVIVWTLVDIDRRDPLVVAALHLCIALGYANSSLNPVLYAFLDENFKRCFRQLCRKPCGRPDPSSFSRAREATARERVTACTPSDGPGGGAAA

[8] = Half life in ICR mouse at 1 mg/kg, iv measured up to 24 hrs; type: ADME, organism-based; conditions: in vivo
[9] = Apparent volume of distribution in Beagle dog at 0.5 mg/kg, iv measured up to 24 hrs; type: ADME, organism-based, Canis lupus familiaris; conditions: in vivo, read-out: Vz
[10] = AUC (0 to t) in Beagle dog at 0.5 mg/kg, iv measured up to 24 hrs; type: ADME, organism-based, Canis lupus familiaris; design: route intravenous, dose 0.5 mg/kg, time <=24; conditions: in vivo
Cytochrome P450 2C19 = Cytochrome P450 2C19 (Homo sapiens, UniProt P33261); test: Inhibition of CYP2C19 in human pooled liver microsomes using S-mephenytoin as substrate measured up to 20 mins by UHPLC-MS/MS analysis; type: ADME
Chain of Cytochrome P450 2C19 (P33261 whole entry): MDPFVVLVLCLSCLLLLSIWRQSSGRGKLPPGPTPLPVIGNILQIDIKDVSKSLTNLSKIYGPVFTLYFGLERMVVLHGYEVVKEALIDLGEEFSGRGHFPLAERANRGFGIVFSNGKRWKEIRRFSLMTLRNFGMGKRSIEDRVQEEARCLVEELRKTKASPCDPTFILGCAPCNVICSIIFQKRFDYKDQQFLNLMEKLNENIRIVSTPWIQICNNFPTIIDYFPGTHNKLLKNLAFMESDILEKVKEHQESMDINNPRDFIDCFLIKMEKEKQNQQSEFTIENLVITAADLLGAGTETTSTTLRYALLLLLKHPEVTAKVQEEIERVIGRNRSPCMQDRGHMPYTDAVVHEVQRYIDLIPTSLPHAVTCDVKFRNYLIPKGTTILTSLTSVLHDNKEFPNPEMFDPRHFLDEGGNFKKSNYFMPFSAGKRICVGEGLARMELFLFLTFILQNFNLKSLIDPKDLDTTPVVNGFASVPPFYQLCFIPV

[11] = Half life in mouse liver microsomes; type: ADME, Microsome
[12] = Apparent volume of distribution in Sprague-Dawley rat at 1 mg/kg, iv measured up to 24 hrs; type: ADME, organism-based; conditions: in vivo, read-out: Vz
Rattus norvegicus [13] = test: Antiinflammatory activity in carrageenan-induced pain in Wistar rat model assessed as effect on hindpaw withdrawal threshold at 0.03 to 0.3 mg/kg, iv administered 4 hrs post-carrageenan challenge and measured for 30 mins after compound administration by Von-Frey test relative to control; type: functional; conditions: dose mg/kg 0.03-0.3, 0.5 h
[14] = AUC (0 to t) in Sprague-Dawley rat at 1 mg/kg, iv measured up to 24 hrs; type: ADME, organism-based; design: route intravenous, dose 1 mg/kg, time <=24; conditions: in vivo
[15] = Clearance in ICR mouse at 1 mg/kg, iv measured up to 24 hrs; type: ADME, organism-based; conditions: in vivo
[16] = AUC (0 to t) in ICR mouse at 1 mg/kg, iv measured up to 24 hrs; type: ADME, organism-based; design: route intravenous, dose 1 mg/kg, time 24 hrs; conditions: in vivo
[17] = Apparent volume of distribution in ICR mouse at 1 mg/kg, iv measured up to 24 hrs; type: ADME, organism-based; conditions: in vivo, read-out: Vz
[18] = Clearance in Beagle dog at 0.5 mg/kg, iv measured up to 24 hrs; type: ADME, organism-based, Canis lupus familiaris; conditions: in vivo
Cytochrome P450 2D6 = Cytochrome P450 2D6 (Homo sapiens, UniProt P10635); test: Inhibition of CYP2D6 in human pooled liver microsomes using dextromethorphan as substrate measured up to 20 mins by UHPLC-MS/MS analysis; type: ADME
Chain of Cytochrome P450 2D6 (P10635 whole entry): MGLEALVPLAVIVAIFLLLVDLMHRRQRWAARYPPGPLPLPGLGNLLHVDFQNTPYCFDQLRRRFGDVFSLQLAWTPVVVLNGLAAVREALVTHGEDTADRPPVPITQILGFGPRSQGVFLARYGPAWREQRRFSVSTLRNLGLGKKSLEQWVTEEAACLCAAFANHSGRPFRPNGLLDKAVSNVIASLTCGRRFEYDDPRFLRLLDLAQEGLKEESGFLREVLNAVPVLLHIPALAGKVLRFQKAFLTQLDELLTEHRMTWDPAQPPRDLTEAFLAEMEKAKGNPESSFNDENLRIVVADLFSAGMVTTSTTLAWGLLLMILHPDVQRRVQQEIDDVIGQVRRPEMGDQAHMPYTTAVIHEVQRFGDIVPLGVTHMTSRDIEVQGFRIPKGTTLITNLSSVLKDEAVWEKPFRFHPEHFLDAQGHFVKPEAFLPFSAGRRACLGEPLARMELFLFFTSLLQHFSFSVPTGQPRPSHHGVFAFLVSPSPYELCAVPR

[19] = Unbound fraction in Sprague-Dawley rat plasma at 1 mg/kg, iv; type: ADME, organism-based
[20] = Half life in rat liver microsomes; type: ADME, Microsome
[21] = Unbound fraction in Sprague-Dawley rat brain at 1 mg/kg, iv; type: ADME, organism-based
[22] = Half life in dog liver microsomes; type: ADME, Canis lupus familiaris, Microsome
[23] = Clearance in Sprague-Dawley rat at 1 mg/kg, iv measured up to 24 hrs; type: ADME, organism-based; conditions: in vivo
Rattus norvegicus [24] = test: Antiinflammatory activity in carrageenan-induced pain in iv dosed Wistar rat model assessed as effect on hindpaw withdrawal threshold administered 4 hrs post-carrageenan challenge and measured for 30 mins after compound administration by Von-Frey test; type: functional, organism-based; conditions: dose mg/kg 0.03-0.3, time 30.0 min
Mu-type opioid receptor = Mu-type opioid receptor (Homo sapiens, UniProt P35372); test: Agonist activity at human mu opioid receptor assessed as inhibition of forskolin-induced cAMP accumulation; type: ADME
Chain of Mu-type opioid receptor (P35372 whole entry): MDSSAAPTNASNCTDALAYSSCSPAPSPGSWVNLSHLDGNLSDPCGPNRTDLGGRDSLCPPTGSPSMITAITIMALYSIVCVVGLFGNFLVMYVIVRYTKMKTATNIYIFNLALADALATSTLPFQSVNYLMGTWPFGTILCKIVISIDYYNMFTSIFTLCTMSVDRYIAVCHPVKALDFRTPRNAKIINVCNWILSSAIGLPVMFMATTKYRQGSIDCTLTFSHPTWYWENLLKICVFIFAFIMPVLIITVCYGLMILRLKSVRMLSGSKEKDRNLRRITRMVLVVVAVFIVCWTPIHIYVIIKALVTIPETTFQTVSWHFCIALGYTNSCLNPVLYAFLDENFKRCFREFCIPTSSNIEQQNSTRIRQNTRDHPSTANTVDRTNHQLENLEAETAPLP

[25] = Half life in human liver microsomes; type: ADME, Microsome
[26] = Drug concentration in Sprague-Dawley rat plasma at 1 mg/kg, iv; type: ADME, organism-based; conditions: in vivo
[27] = Half life in Sprague-Dawley rat at 1 mg/kg, iv measured up to 24 hrs; type: ADME, organism-based; conditions: in vivo
[28] = Unbound brain-to-plasma concentration ratio in Sprague-Dawley rat at 1 mg/kg, iv; type: ADME, organism-based; conditions: read-out: K(p,uu,brain)
[29] = Drug concentration in Sprague-Dawley rat brain at 1 mg/kg, iv; type: ADME, organism-based; conditions: in vivo

## CC(C)C[C@@H](NC(=O)[C@@H](Cc1ccccc1)NC(=O)CNCc1ccccc1)C(=O)N[C@H](CCCCN)C(=O)N1CCOCC1
[1]
  EC50: > 1 nM

## CC(C)C[C@@H](NC(=O)[C@@H](Cc1ccccc1)NC(=O)CNCCCc1ccccc1)C(=O)N[C@H](CCCCN)C(=O)N1CCOCC1
[1]
  EC50: 0.045 nM

## CC(C)C[C@@H](NC(=O)[C@@H](Cc1ccccc1)NC(=O)CNCC1(c2ccccc2)CC1)C(=O)N[C@H](CCCCN)C(=O)N1CCC(N)(C(=O)O)CC1
[1]
  EC50: 0.057 nM

## CC(C)C[C@@H](NC(=O)[C@@H](Cc1ccccc1)NC(=O)CNC[C@H](C)c1ccccc1)C(=O)N[C@H](CCCCN)C(=O)N1CCC(N)(C(=O)O)CC1 [RIMINKEFON]
[1]
  EC50: 0.0014 nM

## CC(C)C[C@@H](NC(=O)[C@@H](Cc1ccccc1)NC(=O)[C@H](N)Cc1ccccc1)C(=O)N[C@H](CCCCN)C(=O)N1CCC(N)(C(=O)O)CC1 [DIFELIKEFALIN]
[1]
  EC50: 0.00262 nM
Rattus norvegicus [2]
  Activity: 61.9%

## CCC(CNCC(=O)N[C@H](Cc1ccccc1)C(=O)N[C@H](CC(C)C)C(=O)N[C@H](CCCCN)C(=O)N1CCC(N)(C(=O)O)CC1)c1ccccc1 (mixture of isomers)
[1]
  EC50: 0.0029 nM

## CC(C)C[C@@H](NC(=O)[C@@H](Cc1ccccc1)NC(=O)[C@@H](C)NCCc1ccccc1)C(=O)N[C@H](CCCCN)C(=O)N1CCC(N)(C(=O)O)CC1
[1]
  EC50: > 1 nM

## CC(C)C[C@@H](NC(=O)[C@@H](Cc1ccccc1)NC(=O)CNCC(C)(C)c1ccccc1)C(=O)N[C@H](CCCCN)C(=O)N1CCC(N)(C(=O)O)CC1
[1]
  EC50: 0.078 nM

## CC(C)C[C@@H](NC(=O)[C@@H](Cc1ccccc1)NC(=O)[C@@H]1Cc2ccccc2CN1)C(=O)N[C@H](CCCCN)C(=O)N1CCOCC1
[1]
  EC50: > 1 nM

## CC(C)C[C@@H](NC(=O)[C@@H](Cc1ccccc1)NC(=O)CNC[C@@H](c1ccccc1)C(C)C)C(=O)N[C@H](CCCCN)C(=O)N1CCC(N)(C(=O)O)CC1
[1]
  EC50: 0.0095 nM

## CC(C)C[C@@H](NC(=O)[C@@H](Cc1ccccc1)NC(=O)CN[C@H]1C[C@@H]1c1ccccc1)C(=O)N[C@H](CCCCN)C(=O)N1CCOCC1
[1]
  EC50: 0.08 nM

## CC(C)C[C@@H](NC(=O)[C@@H](Cc1ccccc1)NC(=O)C1(NCCc2ccccc2)CC1)C(=O)N[C@H](CCCCN)C(=O)N1CCC(N)(C(=O)O)CC1
[1]
  EC50: > 1 nM

## CC(C)C[C@@H](NC(=O)[C@@H](Cc1ccccc1)NC(=O)CNC1Cc2ccccc2C1)C(=O)N[C@H](CCCCN)C(=O)N1CCOCC1 (H-[N(Indan-2-yl)Gly][dF][dL][dK]-Morpholide)
[1]
  EC50: > 1 nM

## CNC(=O)NC1CCN(C(=O)[C@@H](CCCCN)NC(=O)[C@@H](CC(C)C)NC(=O)[C@@H](Cc2ccccc2)NC(=O)CNC[C@H](C)c2ccccc2)CC1 (H-[Gly(N-(2R-Ph-propyl))][dF][dL][dK]-X1)
Cytochrome P450 3A4 [3]
  IC50: > 30000 nM
Cytochrome P450 3A4 [4]
  IC50: > 30000 nM
[5]
  half-life: 4.45 h
[6]
  IC50: > 30000 nM
Cytochrome P450 2C9
  IC50: > 30000 nM
Cytochrome P450 1A2
  IC50: > 30000 nM
[7]
  EC50: > 50000 nM
[8]
  half-life: 0.34 h
[9]
  Vd: 1.24 L/kg
[10]
  AUC(0-t) at 24 h: 2620 ng·h/mL
Cytochrome P450 2C19
  IC50: > 30000 nM
[11]
  half-life: 1.92 h
[12]
  Vd: 4.51 L/kg
[1]
  EC50: 0.00053 nM
Rattus norvegicus [13]
  Activity: 28.9%
[14]
  AUC(0-t) at 24 h: 1550 ng·h/mL
[15]
  clearance: 10.1 mL/min/kg
[16]
  AUC(0-t) at 24 h: 1660 ng·h/mL
[17]
  Vd: 0.297 L/kg
Rattus norvegicus [2]
  Activity: 66.7%
[18]
  clearance: 3.1 mL/min/kg
Cytochrome P450 2D6
  IC50: > 30000 nM
[19]
  fraction unbound: 0.211
[20]
  half-life: > 4.47 h
[21]
  fraction unbound: 0.0258
[22]
  half-life: 3.6 h
[23]
  clearance: 10.5 mL/min/kg
Rattus norvegicus [24]
  Activity: Dose-dependent effect
Mu-type opioid receptor
  EC50: > 50000 nM
[25]
  half-life: 0.667 h
[26]
  Cp: 1144 ng/mL
[27]
  half-life: 4.78 h
[28]
  Kp uu: 0.006
[29]
  Ct: 57.2 ng/g

## CC(C)C[C@@H](NC(=O)[C@@H](Cc1ccccc1)NC(=O)CNCCc1ccccc1)C(=O)N[C@H](CCCCN)C(=O)N1CCOCC1
[1]
  EC50: 0.048 nM

## CC(C)C[C@@H](NC(=O)[C@@H](Cc1ccccc1)NC(=O)CNC[C@@H](C)c1ccccc1)C(=O)N[C@H](CCCCN)C(=O)N1CCC(N)(C(=O)O)CC1
[1]
  EC50: 0.0155 nM

## CC(C)C[C@@H](NC(=O)[C@@H](Cc1ccccc1)NC(=O)CNCCc1ccccc1)C(=O)N[C@H](CCCCN)C(=O)N1CCC(N)(C(=O)O)CC1 (H-[Gly(NCH2CH2Ph)][dF][dL][dK]-{Piperidin1yl(4-NH2,4-COOH)})
[1]
  EC50: 0.054 nM
